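Dose response: 5 concentrations. Exposure: 48 h. Format: 96-well plates. Endpoint: linear interpolation; highest concentration if not reached. TGI denotes the concentration required for complete inhibition of growth.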
Legend:
Assay in all cases: NCI-60 cell line screen, 48 h
[1] = system: DLD-1 colon
[2] = system: DMS 114 small cell lung
[3] = system: DMS 273 small cell lung
[4] = system: SNB-78 CNS
[5] = system: XF 498 CNS
[6] = system: HOP-18 NSCLC
[7] = system: KM20L2 colon
[8] = system: LXFL 529 NSCLC
[9] = system: RXF-631 renal

Work on `Nc1ccc2ncc(Nc3ccc(F)cc3)nc2c1` yielded a TGI [1] greater than 100 µM, a TGI [2] greater than 100 µM and a TGI [3] greater than 100 µM. For the same molecule, the TGI [4] was greater than 100 µM and the TGI [5] was greater than 100 µM.
In the case of `Nc1ccc(C(=O)NN2C(=O)C(Cl)C2c2cc(Br)cc(Br)c2O)cc1` (stereo unspecified), the TGI [1] is reported as greater than 100 µM, the TGI [2] is reported as 25.4 µM and the TGI [3] is reported as greater than 100 µM. It also gave a TGI [6] of 38.2 µM, a TGI [7] greater than 100 µM and a TGI [8] greater than 100 µM. The TGI [4] was greater than 100 µM and the TGI [5] was greater than 100 µM.
Work on `O=C(CSc1nnc(Cc2ccccc2)o1)Nc1ccccc1Cl` yielded a TGI [1] greater than 100 µM, a TGI [2] greater than 100 µM and a TGI [3] greater than 100 µM. For the same molecule, the TGI [6] was greater than 100 µM, the TGI [7] was greater than 100 µM and the TGI [8] was greater than 100 µM. It also gave a TGI [4] greater than 100 µM.
`Cc1ccc(C(=O)OC(C)C)cc1N=NN(C)C` gave a TGI [1] greater than 100 µM, a TGI [3] greater than 100 µM and a TGI [7] greater than 100 µM. For the same molecule, the TGI [8] was greater than 100 µM and the TGI [4] was greater than 100 µM.
`O=[N+]([O-])c1cc2c(cc1O)[nH]c1cccc([N+](=O)[O-])c12` showed a TGI [1] greater than 100 µM, a TGI [2] greater than 100 µM and a TGI [3] greater than 100 µM. For the same molecule, the TGI [6] was greater than 100 µM, the TGI [4] was greater than 100 µM and the TGI [5] was greater than 100 µM.
For `Cc1ccc(/C=C/C(=O)C(C)C)cc1`, the TGI [1] was greater than 100 µM, the TGI [2] was greater than 100 µM and the TGI [7] was greater than 100 µM. The TGI [8] was greater than 100 µM and the TGI [4] was greater than 100 µM.
Work on `COc1ccc([C@@H]2CC(=O)NCCCNCCCCNCCCN2)cc1` yielded a TGI [1] greater than 100 µM, a TGI [2] greater than 100 µM and a TGI [3] greater than 100 µM. For the same molecule, the TGI [6] was greater than 100 µM, the TGI [7] was greater than 100 µM and the TGI [8] was greater than 100 µM. For the same molecule, the TGI [4] was greater than 100 µM and the TGI [5] was greater than 100 µM.
Molecule `Fc1ccc2c(c1)SC1Oc3ccccc3-c3c1c-2nn3-c1ccccc1` (stereo unspecified) has a TGI [1] greater than 100 µM, a TGI [2] greater than 100 µM and a TGI [3] greater than 100 µM. The TGI [6] was greater than 100 µM, the TGI [7] was greater than 100 µM and the TGI [8] was greater than 100 µM. For the same molecule, the TGI [9] was greater than 100 µM, the TGI [4] was greater than 100 µM and the TGI [5] was greater than 100 µM.
With `COc1cc2c(cc1OC)C(=O)Cc1ccc3c(c1CNCC2)OCO3` the TGI [1] was greater than 100 µM, the TGI [2] was greater than 100 µM and the TGI [6] was greater than 100 µM. The TGI [7] was greater than 100 µM, the TGI [8] was greater than 100 µM and the TGI [4] was greater than 100 µM. The TGI [5] was greater than 100 µM.
In the case of `COc1cc(C(C#N)NNC(=O)Cc2ccccc2)cc(OC)c1OC` (stereo unspecified), the TGI [1] is reported as greater than 100 µM, the TGI [2] is reported as greater than 100 µM and the TGI [3] is reported as greater than 100 µM. The TGI [6] was greater than 100 µM, the TGI [7] was greater than 100 µM and the TGI [8] was greater than 100 µM. It also gave a TGI [4] greater than 100 µM.
Work on `CC(OC1CC(=O)CC2C(=O)C=CC(=O)C12)c1ccccc1` (stereo unspecified) yielded a TGI [1] of 26.7 µM, a TGI [2] of 23 µM and a TGI [3] of 33.8 µM. The TGI [6] was 32.2 µM, the TGI [7] was 31 µM and the TGI [8] was 19.8 µM. The TGI [4] was 36.3 µM and the TGI [5] was 29.4 µM.
In the case of `CC(C)[C@H]1CO[C@@H]2O[C@H](C)CC(=O)N21`, the TGI [1] is reported as greater than 100 µM, the TGI [2] is reported as greater than 100 µM and the TGI [6] is reported as greater than 100 µM. It also gave a TGI [7] greater than 100 µM and a TGI [8] greater than 100 µM.
`CC(C)c1cccc(C(C)C)c1NC(=O)C(=O)CC(=O)CC(c1ccccc1)c1c(O)c2ccccc2oc1=O` (stereo unspecified) gave a TGI [1] greater than 100 µM, a TGI [2] greater than 100 µM and a TGI [7] greater than 100 µM.
`COc1cc2c(cc1O)[C@H](C)C(c1ccccc1OC)O2` (stereo partly specified) gave a TGI [1] greater than 100 µM, a TGI [2] of 11 µM and a TGI [3] greater than 100 µM. The TGI [6] was greater than 100 µM, the TGI [7] was 24.4 µM and the TGI [8] was 27.1 µM. For the same molecule, the TGI [4] was greater than 100 µM and the TGI [5] was 24 µM.
